Results: patent US20190021989A1, “GALENIC FORMULATION COMPRISING A TOPICAL DRUG” (NOVARTIS AG, priority 2015, published 2019)

Molecular target: T1, TLR7 (Homo sapiens, UniProt Q9NYK1)
T1 sequence (Q9NYK1 27-1049): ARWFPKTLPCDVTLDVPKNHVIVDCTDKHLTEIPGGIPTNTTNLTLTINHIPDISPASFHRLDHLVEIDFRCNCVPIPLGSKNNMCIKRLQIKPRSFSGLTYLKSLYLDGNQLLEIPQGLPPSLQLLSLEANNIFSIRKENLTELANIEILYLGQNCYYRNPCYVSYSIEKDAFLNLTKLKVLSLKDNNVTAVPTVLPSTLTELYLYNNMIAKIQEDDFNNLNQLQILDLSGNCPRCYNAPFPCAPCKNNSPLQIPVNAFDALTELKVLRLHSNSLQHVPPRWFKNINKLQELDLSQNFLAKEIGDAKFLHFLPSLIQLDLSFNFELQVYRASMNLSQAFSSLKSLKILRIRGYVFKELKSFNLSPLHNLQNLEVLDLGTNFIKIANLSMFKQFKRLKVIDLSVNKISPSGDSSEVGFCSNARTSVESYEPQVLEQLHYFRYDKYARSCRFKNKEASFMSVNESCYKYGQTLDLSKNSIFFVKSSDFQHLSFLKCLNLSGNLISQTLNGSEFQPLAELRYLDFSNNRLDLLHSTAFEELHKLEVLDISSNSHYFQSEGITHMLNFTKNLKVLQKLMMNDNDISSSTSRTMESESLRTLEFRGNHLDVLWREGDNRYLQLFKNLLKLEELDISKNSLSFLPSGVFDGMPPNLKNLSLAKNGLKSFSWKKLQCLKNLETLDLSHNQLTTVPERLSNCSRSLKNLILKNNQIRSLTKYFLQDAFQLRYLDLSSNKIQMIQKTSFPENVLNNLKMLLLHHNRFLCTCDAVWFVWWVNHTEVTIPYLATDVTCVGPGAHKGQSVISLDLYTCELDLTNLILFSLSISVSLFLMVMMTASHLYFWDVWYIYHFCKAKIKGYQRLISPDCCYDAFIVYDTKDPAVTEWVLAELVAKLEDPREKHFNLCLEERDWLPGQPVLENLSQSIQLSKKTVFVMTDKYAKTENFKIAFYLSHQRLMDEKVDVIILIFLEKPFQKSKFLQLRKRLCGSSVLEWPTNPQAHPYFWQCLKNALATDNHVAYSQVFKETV
Experiment: TLR7 agonist potency compared with Aldara
Details: more potent than Aldara

TLR7 agonist potency relative to Aldara: about 100 times
Structure (SMILES): Cc1ccc2c(c1)nc(N)c1ncc(CCc3ccc(OCCC(C)C)cc3C)cc12 [compound of formula (II)]
